Data: US9682033B2, “Methods of treating postherpetic neuralgia with a topical formulation of a spiro-oxindole compound” (Teva Pharmaceuticals International GmbH, priority 2015, dated 2017)
Entries after “also recorded” stand apart in the source; their conditions may differ.

Legend:
[1] = Drug-drug interaction study in healthy subjects: pharmacokinetics of the spiro-oxindole compound (Biological Example 5); format: in vivo, human
Text: Pharmacokinetic parameters were derived by noncompartmental analysis.

[2] = Protein binding in dog plasma; format: in vitro ADME
[3] = Joint penetration and tissue distribution study in domestic pig, multiple-dose topical administration (Biological Example 2); format: in vivo
Method: This study was conducted to evaluate the joint penetration, systemic plasma exposure and tissue distribution of the spiro-oxindole compound in domestic pigs following topical administration of a pharmaceutical composition utilized in the methods of the invention. Fifteen female pigs were used in this study with three pigs in each group. Beginning on Day 1, a pharmaceutical composition of the invention was topically applied to the left radiocarpal joint (carpus) and tibiotarsal joint (hock) twice daily (bid) for 17 days (34 applications) for Groups 1-4 and once daily (qd) for 17 days (17 applications) for Group 5. Pre-dose blood samples (prior to morning dosing) was collected on Days 2, 7, 10, 14 and 17. A full pharmacokinetic sampling was performed on Day 17 (post am dosing) at the following time points: 1, 2, 4, 8 and 12 hr. On the day of necropsy, Day 18, blood was collected prior to euthanasia, each pig was humanely euthanized and dorsal skin and muscle, liver, kidney, heart, lung, brain, intestine, fat, ovaries, urinary bladder, sciatic nerve, and skin, muscle, synovial membrane, and synovial fluid from all 4 joints (2 treated, left carpus and hock, and 2 untreated, right carpus and hock) was collected.
Doses were calculated by measuring the joint circumference and joint width (to include ˜2 cm above and below the joint) to calculate the total surface area for each individual dose. Group 1 received a 2% pharmaceutical composition of the invention and the dose volume for Group 1 was calculated using the total surface area and the designated dose volume of 3 μL/cm^2. The total dose volume was then converted from μL to mL to estimate the dose weight in grams, based on the composition density of 1 g/cm^3. Following is an example (not actual measurements) of calculating the dose:
For Groups 2-5, the dose volume was calculated using the total surface area and the designated dose volume of 3 μL/cm^2 (Groups 2, 3 and 5) or 1 μL/cm^2 (Group 4). […]

[4] = domestic pig, topical administration to a joint

Compound: O=C1N(Cc2ccc(C(F)(F)F)o2)c2ccccc2[C@]12COc1cc3c(cc12)OCO3 [spiro-oxindole compound, (S)-1′-{[5-(trifluoromethyl)furan-2-yl]methyl}spiro[furo[2,3-f][1,3]benzodioxole-7,3′-indol]-2′(1′H)-one]
- relationship of exposure with CYP2C19 phenotype [1]: no apparent relationship
- mean plasma concentration at the follow-up visit (360±24 hours) ([1]; after final application of 8% composition): 0.32629 ng/mL
- Cmax ([1]; both sexes, human, plasma, topical, 8 % composition applied to 53% of BSA, BID, day 9, over 24 hours from the final application, read-out: geometric mean Cmax): 15.1 ng/mL
- AUC(0-t) ([1]; both sexes, human, plasma, topical, 8 % composition applied to 53% of BSA, BID, first 12 hours after the final application, read-out: geometric mean AUC0-12): 133 ng·h/mL
- concentration at 24 hours ([1]; both sexes, human, plasma, topical, 8 % composition applied to 53% of BSA, day 9, after final application of 8% composition (BID, 53% BSA, 7.5 days), read-out: mean plasma concentration at 24 hours postdose): 11.7 ng/mL
- geometric mean Ctrough (predose value) ([1]; day 9, topical 8% composition BID 53% BSA): 12.76052 ng/mL
- average concentration over the 12-hour period ([1]; first 12 hours after the final application): 11075.55 pg/mL
- steady state (in words) ([1]; topical BID dosing): steady state had not been achieved after 7.5 days of dosing; also recorded: did not reach steady state within 7.5 days
- protein bound [2]: 98.3%
- concentration in the synovial membrane tissue of the treated joint (in words) [3, 4]: micromolar concentrations
- plasma concentrations (in words) [3, 4]: nanomolar
- spiro-oxindole compound concentration in liver tissue ([3]; pig G2 (#4-6): 4% composition, 3 μL/cm^2 bid topical 17 days, individual animals): 0/0
